# According to patent publication US20020025944A1, “Use of clioquinol for the therapy of Alzheimer's disease” (priority 2000, published 2002):
# Where two headings read alike, the source gives them in different places.
# Tests used:
# [1] = dissolving clioquinol: n-decane / PBS partitioning; assay type: physicochemical
# Procedure: In order to obtain a solution of clioquinol in PBS, the following protocol was followed: 5.3 grams of clioquinol was suspended with agitation in 200 milliliter of n-decane. […] Next, the phases were allowed to separate. The lower phase ([…]) was collected and filtered to remove the residue which had formed at the phase interface upon extraction with the organic solvent. […] This number was arrived at based on two assumptions: (1) 2% of the clioquinol was dissolved in the n-decane; and (2) the partitioning coefficient is 1/1750 with PBS at 1:1 mixture of n-decane to […].
# Aβ 1-40 aggregates = Aβ 1-40 aggregates (Homo sapiens, UniProt P05067); assay: resolubilization of metal- or pH-induced Aβ aggregates on 0.2μ nylon membrane; assay type: biochemical; details: 2 μM chelator in TBS, relative to TBS alone
# Procedure: Aggregates were transferred to a 0.2μ nylon membrane by filtration. The aggregates were then washed (200 μl/well) with TBS alone, TBS containing 2 μM EDTA, or TBS containing 2 μM clioquinol. The membrane was fixed, probed with the anti-Aβ monoclonal antibody 6E10, and developed for exposure to ECL-film. […] Values are expressed as a percentage of Aβ signal after washing with TBS alone.
# First, the efficacy of clioquinol's ability to resolubilize Aβ aggregates, formed in vitro by the action of Cu(II) or Zn(II) upon Aβ 1-40, was examined. […] Aβ (10 ng/well in buffered saline) aggregation was induced by addition of ZnCl2 (5 μM) or acidic conditions (pH 5.5). Aggregates were transferred to a 0.2μ nylon membrane by filtration. The aggregates were then washed (200 μl/well) with TBS alone, TBS containing 2 μM EDTA or TBS with 2 μM clioquinol. The membrane was then fixed, probed with anti-Aβ monoclonal antibody 6E10 and developed for exposure to ECL-film.
# Values are expressed as a % of Aβ signal remaining on the filter after washing with TBS alone.
# [2] = system: Aβ deposits from AD-affected brain; assay: extraction of Aβ from post-mortem AD-affected brain tissue, western blot; assay type: biochemical, human
# Description: To test this hypothesis, the brain tissue preparation of Kuo and colleagues was replicated, but phosphate-buffered saline pH 7.4 (PBS) was substituted as the extraction buffer, achieving similar results. Highly sensitive and specific anti-Aβ monoclonal antibodies (Ida et al., (1996)) were used to assay Aβ extraction by western blot. Next, the extraction of the same material with PBS was repeated in the presence of clioquinol and determined that the presence of clioquinol increased the amount of Aβ in the soluble extract several-fold (FIGS. 1, 2, 3A, and 3B).
# Next, the ability of clioquinol to extract Aβ deposits from human brain was determined. […] Fragments of prefrontal cortex from individual post-mortem samples with the histopathological diagnosis of AD were homogenized in PBS, ph 7.4, and then pelleted after centrifugation.
# The pellets were then washed with agitation twice for 30 minutes, 4° C., with PBS or PBS containing clioquinol (100% =0.8 μM clioquinol). The suspension was then pelleted (10,000 g for 30 minutes) and the supernatant removed (S1) for western blot analysis using Aβ-specific antibodies.
# FIGS. 3A and 3B show the western blot and accompanying densitometric analysis of resolubilization of Aβ from AD-affected brain. […] Synthetic peptide standards that were used to calibrate densitometric quantification are shown in the two right-most lanes. […]
# Aβ1-40 = Aβ1-40 (Homo sapiens, UniProt P05067); assay: Zn(II)-induced Aβ1-40 aggregation, supernatant protein by BCA assay; assay type: biochemical; details: 20 mM HEPES, pH 7.4, 30 minutes at 37° C.
# Procedure: Aβ1-40 was incubated with no metal, Zn (II), Zn (II) +clioquinol, DMSO or clioquinol (120 μM) in 20 mM HEPES, […], pH 7.4. Samples were incubated for 30 minutes at 37° C. and then centrifuged at 10,000 g for 20 minutes and the protein content of the supernatant determined using the BCA assay. Clioquinol was dissolved in DMSO prior to adding 20 μM to the samples. […] DMSO had no effect on Aβ aggregation. Results are mean ±SD, n=3.
# [3] = chelation of zinc; cited from earlier work
# [4] = rats and mice, within one hour of ingestion; cited from earlier work
# [5] = cited from earlier work; for blood brain barrier passage: in vivo
# [6] = cited from earlier work
# [7] = rats, oral dose of 200 mg/kg; cited from earlier work
# [8] = dogs, oral dose of 200 mg/kg; cited from earlier work
# [9] = monkeys, oral dose of 500 mg/kg; cited from earlier work
# [10] = cited from earlier work; remark: listed apart in the source
# [11] = sustained treatment; cited from earlier work
# [12] = with PBS at 1:1 mixture of n-decane; cited from earlier work
# Aβ 1-40 aggregates, sequence (P05067 672-711): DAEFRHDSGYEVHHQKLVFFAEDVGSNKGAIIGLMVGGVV
# Aβ1-40, sequence (P05067 672-711 limits assumed): as the sequence (P05067 672-711) above
smiles,measurement,setting,value
"Oc1c(I)cc(Cl)c2cccnc12 [clioquinol, 5-chloro-7-iodo-8-hydroxyquinoline]",fraction of clioquinol dissolved in n-decane,[1]; 5.3 grams suspended in 200 milliliter n-decane,2%
same,concentration of clioquinol in the PBS,[1]; PBS pH 7.4 after 1:1 extraction of n-decane supernatant,800 nanamolar
same,resolubilized Cu(II)-induced Aβ precipitate,Aβ 1-40 aggregates,85%
same,resolubilized Zn(II)-induced Aβ precipitate,Aβ 1-40 aggregates,50%
same,resolubilized pH 5.5-induced Aβ precipitate,Aβ 1-40 aggregates,10%
same,increase in solubilization of Aβ relative to PBS alone,"[2]; 1.12 μM clioquinol, sequential extraction",2.5 fold
same,proportion of Aβ re-dissolved from post-mortem AD affected brain tissue,[2]; compared to buffer in the absence of chelators,up to 70%
same,effect on Zn-induced Aβ1-40 aggregation,Aβ1-40,attenuated Zn-induced Aβ1-40 aggregation
same,K(Zn),[3],12.5
same,blood levels,[4],1 to 10 µM
same,removal of a bolus dose from the brain,[5]; bolus dose,almost completely removed from the brain within three hours
same,blood brain barrier passage,[5],freely permeable into the brain
same,blood brain barrier passage,[5]; listed as Clioquinol,crosses the blood brain barrier
same,general toxicity profile,[6]; in vivo,low general toxicity profile
same,safety in mammalian species,"[6]; many mammalian species, including rat and mouse",appears to be safe
same,plasma levels,[7],5 µM
same,plasma levels,[8],10 to 30 µM
same,plasma levels,[9],20 to 70 µM
same,excretion half life,[10]; in vivo,1 to 3 h
same,time to reach peak plasma levels,[10]; oral ingestion,≤ 30 min
same,dose causing subacute myelo-optic neuritis,[11],10 mg/kg/day
same,partitioning coefficient,[12],1/1750
